Measurements taken from ChEMBL document CHEMBL5131473, “One-pot synthesis of oxoaporphines as potent antitumor agents and investigation of their mechanisms of actions” (Eur J Med Chem, 2022).
Activity calls are given as the source filed them. No cut-off for these calls is given here.

Assays:
Type in all cases: functional, cell-based
WI-38 = experiment: Antiproliferative activity against human WI-38 cells assessed as cell growth inhibition measured after 48 hrs by MTT assay; settings: WI-38, 48 h
MGC-803 = experiment: Antiproliferative activity against human MGC-803 cells assessed as cell growth inhibition measured after 48 hrs by MTT assay; settings: MGC-803, 48 h
T-24 [1] = experiment: Antiproliferative activity against human T24 cells assessed as cell growth inhibition measured after 48 hrs by MTT assay; settings: T-24, 48 h
SK-OV-3 = experiment: Antiproliferative activity against human SK-OV-3 cells assessed as cell growth inhibition measured after 48 hrs by MTT assay; settings: SK-OV-3, 48 h
HepG2 = experiment: Antiproliferative activity against human HepG2 cells assessed as cell growth inhibition measured after 48 hrs by MTT assay; settings: HepG2, 48 h
T-24 [2] = experiment: Induction of mitochondrial membrane potential dysfunction in human T24 cells assessed as mitochondrial fragment condensation at 0.5 to 1 uM by mito-tracker green dye based fluorescence microscopy; settings: dose 0.5-1 µM

O=C1c2cc([N+](=O)[O-])ccc2-c2cccc3ccnc1c23
IC50 (WI-38): > 40 µM | IC50 (MGC-803): > 40 µM | IC50 (T-24 [1]): > 40 µM | IC50 (SK-OV-3): > 40 µM | IC50 (HepG2): > 40 µM

O=C1c2c(F)cccc2-c2cccc3ccnc1c23
IC50 (WI-38): > 40 µM | IC50 (MGC-803): 16.2 µM | Activity (T-24 [2]): Active | IC50 (T-24 [1]): 15.2 µM | IC50 (SK-OV-3): 22.3 µM | IC50 (HepG2): 30.3 µM

COc1ccc2c(c1)-c1cccc3ccnc(c13)C2=O
IC50 (WI-38): > 40 µM | IC50 (MGC-803): 16.6 µM | IC50 (T-24 [1]): 18.9 µM | IC50 (SK-OV-3): 26.1 µM | IC50 (HepG2): 19.6 µM

COc1ccc2c3c(nccc13)C(=O)c1cc(O)ccc1-2
IC50 (WI-38): > 40 µM | IC50 (MGC-803): > 40 µM | IC50 (T-24 [1]): 12.3 µM | IC50 (SK-OV-3): 32.9 µM | IC50 (HepG2): 34.1 µM

O=C1c2ccc(F)cc2-c2cccc3ccnc1c23
IC50 (WI-38): 36.5 µM | IC50 (MGC-803): 17.8 µM | IC50 (T-24 [1]): 21.2 µM | IC50 (SK-OV-3): 27.4 µM | IC50 (HepG2): 27.4 µM

COc1cc2ccnc3c2c(c1OC)-c1ccccc1C3=O [LYSICAMINE]
IC50 (WI-38): 6.7 µM | IC50 (MGC-803): 15.8 µM | IC50 (T-24 [1]): 7.3 µM | IC50 (SK-OV-3): 12.1 µM | IC50 (HepG2): > 40 µM

O=C1c2cc(O)ccc2-c2cccc3ccnc1c23
IC50 (WI-38): > 40 µM | IC50 (MGC-803): 21.5 µM | IC50 (T-24 [1]): 28.9 µM | IC50 (SK-OV-3): 29.4 µM | IC50 (HepG2): > 40 µM

COc1cc2c3c(nccc3c1OC)C(=O)c1cc(O)ccc1-2
IC50 (WI-38): > 40 µM | IC50 (MGC-803): 30.9 µM | IC50 (T-24 [1]): 26.2 µM | IC50 (SK-OV-3): 38.4 µM | IC50 (HepG2): 36.9 µM

COc1cc2c3c(nccc3c1OC)C(=O)c1cc(OCc3ccccc3)ccc1-2
IC50 (WI-38): 35.1 µM | IC50 (MGC-803): 15.8 µM | IC50 (T-24 [1]): 7.3 µM | IC50 (SK-OV-3): 22.1 µM | IC50 (HepG2): > 40 µM

COc1cc2c(cc1OC)-c1cccc3ccnc(c13)C2=O
IC50 (WI-38): 38.2 µM | IC50 (MGC-803): 10.9 µM | IC50 (T-24 [1]): 22.3 µM | IC50 (SK-OV-3): > 40 µM | IC50 (HepG2): 35.9 µM

COc1cc2c3c(nccc3c1OC)C(=O)c1ccccc1-2
IC50 (WI-38): 29.7 µM | IC50 (MGC-803): 9.2 µM | Activity (T-24 [2]): Active | IC50 (T-24 [1]): 18.3 µM | IC50 (SK-OV-3): 27.4 µM | IC50 (HepG2): 35 µM

O=c1[nH]cc(F)c(=O)[nH]1 [FLUOROURACIL]
IC50 (WI-38): > 40 µM | IC50 (MGC-803): 39.1 µM | IC50 (T-24 [1]): 39.4 µM | IC50 (SK-OV-3): 21.6 µM | IC50 (HepG2): 20.4 µM

O=C1c2ccc(Cl)cc2-c2cccc3ccnc1c23
IC50 (WI-38): > 40 µM | IC50 (MGC-803): 15.9 µM | IC50 (T-24 [1]): 16.8 µM | IC50 (SK-OV-3): 27.2 µM | IC50 (HepG2): > 40 µM

O=C1c2cc(Cl)ccc2-c2cccc3ccnc1c23
IC50 (WI-38): > 40 µM | IC50 (MGC-803): 26.3 µM | IC50 (T-24 [1]): 34.1 µM | IC50 (SK-OV-3): > 40 µM | IC50 (HepG2): 15.3 µM

Cc1ccc2c(c1)C(=O)c1nccc3cccc-2c13
IC50 (WI-38): 28.4 µM | IC50 (MGC-803): 10 µM | IC50 (T-24 [1]): 12.4 µM | IC50 (SK-OV-3): 17 µM | IC50 (HepG2): 13.1 µM

COc1ccc2c(c1)C(=O)c1nccc3cccc-2c13
IC50 (WI-38): 28.7 µM | IC50 (MGC-803): 14.8 µM | IC50 (T-24 [1]): 20.4 µM | IC50 (SK-OV-3): 19.4 µM | IC50 (HepG2): 7.3 µM

O=C1c2cc3c(cc2-c2cccc4ccnc1c24)OCO3
IC50 (WI-38): > 40 µM | IC50 (MGC-803): 20.8 µM | IC50 (T-24 [1]): 14.2 µM | IC50 (SK-OV-3): 38.1 µM | IC50 (HepG2): > 40 µM

COc1ccc2c3c(nccc13)C(=O)c1cc(OCc3ccccc3)ccc1-2
IC50 (WI-38): 38.6 µM | IC50 (MGC-803): 16.7 µM | IC50 (T-24 [1]): 19.1 µM | IC50 (SK-OV-3): 18.5 µM | IC50 (HepG2): 25.8 µM

Cc1ccc2c(c1)-c1cccc3ccnc(c13)C2=O
IC50 (WI-38): 32.4 µM | IC50 (MGC-803): 10.6 µM | IC50 (T-24 [1]): 8.6 µM | IC50 (SK-OV-3): 16.7 µM | IC50 (HepG2): 30.1 µM

COc1ccc2c3c(nccc13)C(=O)c1ccccc1-2
IC50 (WI-38): 20.4 µM | IC50 (MGC-803): 7.3 µM | IC50 (T-24 [1]): 6.5 µM | IC50 (SK-OV-3): 10.4 µM | IC50 (HepG2): 12.8 µM

O=C1c2cc(OCc3ccccc3)ccc2-c2cccc3ccnc1c23
IC50 (WI-38): > 40 µM | IC50 (MGC-803): > 40 µM | IC50 (T-24 [1]): > 40 µM | IC50 (SK-OV-3): > 40 µM | IC50 (HepG2): > 40 µM
